Assays:
Experiment in all cases: relative viability (nuclei count vs DMSO), 5 days (fraction); higher = more cells survive
AZ505 + OSI-027 = compound: C1CCC(CC1)N(CCNCCC2=C3C(=C(C=C2)O)NC(=O)CO3)C(=O)CCNCCC4=CC(=C(C=C4)Cl)Cl [AZ505] + COc1cccc2cc(-c3nc([C@H]4CC[C@H](C(=O)O)CC4)n4ncnc(N)c34)[nH]c12 [OSI-027] (partner 0.5 µM)
Summary of the method: (§1)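 Relative viability equals treated-well nuclei counts divided by vehicle-well nuclei counts. Counts came from 4× images of lung cancer cell lines grown in 1536-well plates for 5 days after pin-tool dosing on the day after seeding. Dosing used one drug alone or a fixed anchor-drug dose plus five library-drug doses (not always all listed) in √10 steps, and values are medians of duplicate plates.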

AZ505 + Linsitinib = compound: C1CCC(CC1)N(CCNCCC2=C3C(=C(C=C2)O)NC(=O)CO3)C(=O)CCNCCC4=CC(=C(C=C4)Cl)Cl [AZ505] + C[C@]1(O)C[C@@H](c2nc(-c3ccc4ccc(-c5ccccc5)nc4c3)c3c(N)nccn32)C1 [Linsitinib] (partner 1 µM)
Summary of the method: as §1

AZ505 + Phenformin = compound: C1CCC(CC1)N(CCNCCC2=C3C(=C(C=C2)O)NC(=O)CO3)C(=O)CCNCCC4=CC(=C(C=C4)Cl)Cl [AZ505] + N=C(N)NC(=N)NCCc1ccccc1 [Phenformin] (partner 250 µM)
Summary of the method: as §1

Dactolisib + Luminespib = compound: Cn1c(=O)n(-c2ccc(C(C)(C)C#N)cc2)c2c3cc(-c4cnc5ccccc5c4)ccc3ncc21 [Dactolisib] + CCNC(=O)c1noc(-c2cc(C(C)C)c(O)cc2O)c1-c1ccc(CN2CCOCC2)cc1 [Luminespib] (partner 0.01 µM)
Summary of the method: as §1

Cell Line | relative viability (AZ505 + OSI-027; first compound 0.08 µM) | relative viability (AZ505 + OSI-027; first compound 0.253 µM) | relative viability (AZ505 + OSI-027; first compound 0.8 µM) | relative viability (AZ505 + OSI-027; first compound 2.53 µM) | relative viability (AZ505 + OSI-027; first compound 8 µM) | relative viability (AZ505 + Linsitinib; first compound 0.08 µM) | relative viability (AZ505 + Linsitinib; first compound 0.253 µM) | relative viability (AZ505 + Linsitinib; first compound 0.8 µM) | relative viability (AZ505 + Linsitinib; first compound 2.53 µM) | relative viability (AZ505 + Linsitinib; first compound 8 µM) | relative viability (AZ505 + Phenformin; first compound 0.08 µM) | relative viability (AZ505 + Phenformin; first compound 0.253 µM) | relative viability (AZ505 + Phenformin; first compound 0.8 µM) | relative viability (AZ505 + Phenformin; first compound 2.53 µM) | relative viability (AZ505 + Phenformin; first compound 8 µM) | relative viability (Dactolisib + Luminespib; first compound 0.002 µM) | relative viability (Dactolisib + Luminespib; first compound 0.006325 µM) | relative viability (Dactolisib + Luminespib; first compound 0.02 µM) | relative viability (Dactolisib + Luminespib; first compound 0.06325 µM) | relative viability (Dactolisib + Luminespib; first compound 0.2 µM)
RERF-LC-KJ | 0.471 | 0.575 | 0.552 | 0.574 | 0.492 | 0.857 | 0.85 | 0.929 | 0.897 | 0.902 | 0.393 | 0.436 | 0.394 | 0.348 | 0.358 | 1.3 | 1.29 | 0.859 | 0.326 | 0.415
NCI-H23 | 0.54 |  | 0.609 | 0.71 | 0.563 | 0.561 |  | 0.651 | 0.554 | 0.545 | 0.731 |  | 0.741 | 0.759 | 0.821 | 0.205 | 0.208 | 0.222 | 0.191 | 0.203
EMC-BAC-2 | 0.358 | 0.38 | 0.392 | 0.385 | 0.372 | 0.767 | 0.834 | 0.813 | 0.822 | 0.879 | 0.497 | 0.593 | 0.496 | 0.508 | 0.487 | 1.15 | 1.14 | 1.1 | 0.875 | 0.556
NCI-H2405 | 0.436 | 0.511 | 0.528 | 0.574 | 0.501 | 0.585 | 0.639 | 0.62 | 0.563 | 0.714 | 0.278 | 0.214 | 0.31 | 0.218 | 0.263 | 0.665 | 0.689 | 0.755 | 0.393 | 0.272
NCI-H358 | 0.715 | 0.769 | 0.652 | 0.556 | 0.767 | 0.733 | 0.689 | 0.689 | 0.752 | 0.669 | 0.356 | 0.346 | 0.351 | 0.24 | 0.364 | 0.399 | 0.289 | 0.273 | 0.203 | 0.111
NCI-H1944 | 0.396 | 0.389 | 0.497 | 0.385 | 0.425 | 1.15 | 1.12 | 1.23 | 0.922 | 1.07 | 0.197 | 0.184 | 0.233 | 0.193 | 0.21 | 0.957 | 0.724 | 0.714 | 0.288 | 0.263
EPLC-272H |  | 0.251 | 0.22 | 0.263 | 0.283 | 0.922 | 1.14 | 1.04 | 1.34 | 1.33 |  | 0.283 | 0.304 | 0.241 | 0.324 | 0.691 | 0.262 | 0.264 | 0.203 | 0.23
NCI-H1915 | 0.549 | 0.563 | 0.544 | 0.416 | 0.587 | 1.14 | 1.1 | 1.03 | 0.942 | 1.04 | 0.339 | 0.38 | 0.345 | 0.375 | 0.354 | 0.78 | 0.823 | 0.692 | 0.516 | 0.442
